The half-life is how long it takes for the measured level to halve.

The values below come from PubChem BioAssay AID1963597 (National Center for Advancing Translational Sciences (NCATS), 2024).

The data set concerns human liver microsomes, metabolic stability half-life. The data set can be described thus: NCATS Human Liver Microsomal (HLM) Stability Profiling. Conditions: higher = more stable; screened at 1 µM (by protocol). Summed up: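 Substrate depletion (in vitro t1/2): 1 µM compound with 0.5 mg/mL microsomes and NADPH regenerating system, phosphate buffer pH 7.4, 37 °C. Sampled at 0, 5, 10, 15, 30, 60 min into cold acetonitrile with albendazole internal standard for MS quantification.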
`Nc1nc2ccccc2n1Cc1ccc(F)cc1` returned a half-life of more than 120 min. `CN1CCN(C(=O)c2ccc(Nc3nccc(-c4cccs4)n3)cc2Cl)CC1` registered a half-life of 19.2 min. The value for `CO/N=C(\C(=O)O)c1csc(NC(=O)CCl)n1` was 11.4 min; that for `C[C@@H]1C[C@H]2[C@@H]3C[C@H](F)C4=CC(=O)C(Cl)=C[C@]4(C)[C@@]3(F)[C@@H](O)C[C@]2(C)[C@@]1(O)C(=O)CO` was 46.3 min. Under `N#Cc1cnc2cnc(NCc3cccnc3)cc2c1Nc1ccc(F)c(Cl)c1` stands 12.4 min. The value for `CCC(CC)Nc1nc(C)c(-c2ccc(OC(F)(F)F)cc2OC)nc1OC` was 20.5 min.

With `CCCCN(CCCC)C(=O)CN1C[C@H](c2ccc3c(c2)OCO3)[C@@H](C(=O)O)[C@@H]1c1ccc(OC)cc1`, the half-life worked out at 72.6 min. The value for `N#Cc1cccc(C(=O)Nc2ccc3ncnc(N4CCCCC4)c3c2)c1` was 12.4 min; that for `COc1cc(C(c2c(C)[nH][nH]c2=O)c2c(C)[nH][nH]c2=O)ccc1OC(=O)c1ccccc1F` was 1.83 min. Under `CCOC(=O)c1c(NC(=O)c2ccc(S(=O)(=O)N(C)C3CCCCC3)cc2)sc2c1CCN(C(C)C)C2` stands 2.21 min. The value for `Nc1ncnc2c1ncn2Cc1c(F)cccc1Cl` was more than 120 min. Regarding `COc1cc(C(=O)OC(COCCC(C)C)CN2CCOCC2)cc(OC)c1OC` (stereo unspecified), the half-life was found to be 2.43 min. The value for `CC[C@]1(O)C[C@@H]2CN(CCc3c([nH]c4ccccc34)[C@@](C(=O)OC)(c3cc4c(cc3OC)N(C)[C@H]3[C@@](O)(C(=O)OC)[C@H](OC(C)=O)[C@]5(CC)C=CCN6CC[C@]43[C@@H]65)C2)C1` was 54.6 min; that for `CC(C)COC(=O)c1ccc(N)cc1` was 11.4 min. In turn, `Cc1cc(C)cc(NC(=O)Nc2cccs2)c1` gave a half-life of 3.55 min. The value for `C1N2CN3CN1CN(C2)C3` was 30.5 min; that for `Cc1ccc(C2=Nc3ccccc3N(CC(=O)Nc3ccccc3F)C(=O)C2)cc1C` was 6.23 min; that for `O=C(C1CCCCC1)N1CC(=O)N2CCCc3ccccc3C2C1` (stereo unspecified) was 20.8 min. Under `CCCc1ccc(C(=O)O)cc1` stands more than 120 min; under `O=C(CCc1ccccc1)N1CCC(O)(Cn2cnc3cc(Cl)ccc3c2=O)CC1`, 3.16 min; under `COc1ccc(C2c3c(oc4ccc(Cl)cc4c3=O)C(=O)N2CCCN(C)C)cc1OC` (stereo unspecified), more than 120 min.
